What was measured:
Assay type in all cases: in vivo
[1] = tested on: house fly (Musca domestica); assay: direct spray bioassay against house fly; conditions: for % Mortality: Hour 4; for mortality at 0.025 % strength / mortality at 0.1 % strength / mortality at 0.25 % strength / mortality at 1 % strength: Musca domestica
Procedure: (§1) To determine if the mixtures provided unexpected results, the observed combined efficacy (“OCE”) was divided by the expected combined efficacy (“ECE”) to give an OCE/ECE ratio wherein the expected ECE is calculated by the Abbott method: […]
(§2) wherein ECE is the expected combined efficacy and in which A and B are the efficacy provided by the single active ingredients. If the ratio between the OCE of the mixture and the ECE of the mixture is greater than 1, then greater than expected interactions are present in the mixture. (Gisi, The American Phytopathological Society, 86:11, 1273-1279, 1996).
(§3) A direct spray bioassay for a mixture of sabadilla N-octyl and MGK264 against house fly (Musca domestica) was conducted on Mar. 6-13, 2019. A water-based formulation containing Sabadilla alone, MGK264 alone, or these combinations were prepared using test products and distilled water. Ten adults (females) of the house fly were put into 650 mL clean cup (100 mm diameter×70 mm height) laid a filter paper (106 mm diameter) at the bottom, and the cup was covered with 1 mm mesh nylon net. The cup was set on the bottom of CSMA chamber (460 mm×460 mm×700 mm height), and 0.5 mL of water (control) or water-based formulation of test products was sprayed from the distance of 30 cm toward the cup at the air pressure of 0.039 MPa (0.4 kg/cm2). […] The test was repeated 4 times and calculated mortality (%) at each observation point.

[2] = tested on: Yellow fever mosquito (Aedes aegypti); assay: whole plant or invertebrate; conditions: for % Mortality: Hour 4; for mortality at 0.05 % strength / mortality at 0.5 % strength / mortality at 1 % strength / mortality: Aedes aegypti; for mortality at 1 % strength: 1.0 % w/w
Procedure: as §3, with “sabadilla and” for “sabadilla”, “bycloheptene dicarboximide (MGK264)” for “and MGK264”, “Yellow fever mosquito (Aedes aegypti)” for “house fly (Musca domestica)”, “Sep. 20-27,” for “Mar. 6-13,”, “mosquito” for “house fly”
as §1, §2

[3] = tested on: German cockroach (Blattella germanica); assay: direct spray bioassay against German cockroach; conditions: for % Mortality: Hour 4; for mortality at 0.05 % strength / mortality at 0.5 % strength / mortality at 5 % strength: Blattella germanica
Procedure: as §1, §2
(§4) A direct spray bioassay for a mixture of sabadilla and MGK264 against German cockroach (Blattella germanica) was conducted on Feb. 13-20, 2019. A water-based formulation containing Sabadilla alone, MGK264 alone, or these combinations were prepared using test products and distilled water. Ten adults (1:1 sex ratio) of the cockroach were put into 200 mL clean cup (80 mm diameter×45 mm height) laid a filter paper (82 mm diameter) at the bottom. The cup was set on the bottom of CSMA chamber (460 mm×460 mm×700 mm height), and 1.5 mL of water (control) or water-based formulation of test products was sprayed from the distance of 60 cm toward the cup at the air pressure of 0.041 MPa (0.42 kg/cm2). […] The test was repeated 4 times and calculated mortality (%) at each observation point.

[4] = tested on: bed bug (Cimex lectularius); assay: direct spray bioassay against bed bug; conditions: for % Mortality: Hour 4; for mortality at 0.05 % strength / mortality at 0.5 % strength / mortality at 5 % strength: Cimex lectularius
Procedure: as §1, §2
as §4, with “bed bug (Cimex lectularius)” for “against German cockroach (Blattella germanica)”, “February 27 to Mar. 6,” for “Feb. 13-20,”, “bed bug (Cimex lectularius)” for “cockroach”, “0.5” for “1.5”

SMILES: CCCCC(CC)CN1C(=O)C2C3C=CC(C3)C2C1=O (centres unmarked) [MGK264, N-octyl bicycloheptene dicarboximide]
- % Mortality ([1]; 0.025 % w/w): 0.0%
- % Mortality ([1]; 0.1 % w/w): 0.0%
- % Mortality ([1]; 0.25 % w/w): 0.0%
- % Mortality ([1]; 1.0 % w/w): 0.0%
- mortality at 0.025 % strength ([1]; 24 h, 0.025 % w/w, Day 1): 0%
- mortality at 0.1 % strength ([1]; 24 h, 0.1 % w/w, Day 1): 0%
- mortality at 0.25 % strength ([1]; 24 h, 0.25 % w/w, Day 1): 0%
- mortality at 1 % strength ([1]; 24 h, 1.0 % w/w, Day 1): 2.5%
- mortality at 0.025 % strength ([1]; 48 h, 0.025 % w/w, Day 2): 7.3%
- mortality at 0.1 % strength ([1]; 48 h, 0.1 % w/w, Day 2): 10%
- mortality at 0.25 % strength ([1]; 48 h, 0.25 % w/w, Day 2): 10%
- mortality at 1 % strength ([1]; 48 h, 1.0 % w/w, Day 2): 12.5%
- mortality at 0.025 % strength ([1]; 120 h, 0.025 % w/w, Day 5): 34.1%
- mortality at 0.1 % strength ([1]; 120 h, 0.1 % w/w, Day 5): 37.5%
- mortality at 0.25 % strength ([1]; 120 h, 0.25 % w/w, Day 5): 42.5%
- mortality at 1 % strength ([1]; 120 h, 1.0 % w/w, Day 5): 72.5%
- mortality at 0.025 % strength ([1]; 144 h, 0.025 % w/w, Day 6): 53.7%
- mortality at 0.1 % strength ([1]; 144 h, 0.1 % w/w, Day 6): 37.5%
- mortality at 0.25 % strength ([1]; 144 h, 0.25 % w/w, Day 6): 50%
- mortality at 1 % strength ([1]; 144 h, 1.0 % w/w, Day 6): 80%
- mortality at 0.025 % strength ([1]; 168 h, 0.025 % w/w, Day 7): 68.3%
- mortality at 0.1 % strength ([1]; 168 h, 0.1 % w/w, Day 7): 55%
- mortality at 0.25 % strength ([1]; 168 h, 0.25 % w/w, Day 7): 60%
- mortality at 1 % strength ([1]; 168 h, 1.0 % w/w, Day 7): 87.5%
- mortality at 0.025 % strength ([1]; 0.025 % w/w, Hour 1): 0%
- mortality at 0.1 % strength ([1]; 0.1 % w/w, Hour 1): 0%
- mortality at 0.25 % strength ([1]; 0.25 % w/w, Hour 1): 0%
- mortality at 1 % strength ([1]; 1.0 % w/w, Hour 1): 0%
- % Mortality ([2]; 0.05 % w/w): 0.0%
- % Mortality ([2]; 0.1 % w/w): 0.0%
- % Mortality ([2]; 0.5 % w/w): 0.0%
- mortality at 0.05 % strength ([2]; 24 h, 0.05 % w/w, Day 1): 0%
- mortality at 0.5 % strength ([2]; 24 h, 0.5 % w/w, Day 1): 0%
- mortality at 1 % strength ([2]; 24 h, Day 1): 10%
- mortality ([2]; 24 h, Day 1): 0%
- mortality at 0.5 % strength ([2]; 48 h, 0.5 % w/w, Day 2): 0%
- mortality at 1 % strength ([2]; 48 h, Day 2): 12.5%
- mortality at 0.05 % strength ([2]; 120 h, 0.05 % w/w, Day 5): 0%
- mortality at 0.5 % strength ([2]; 120 h, 0.5 % w/w, Day 5): 0%
- mortality at 1 % strength ([2]; 120 h, Day 5): 12.5%
- mortality at 0.5 % strength ([2]; 144 h, 0.5 % w/w, Day 6): 0%
- mortality at 1 % strength ([2]; 144 h, Day 6): 12.5%
- mortality at 0.05 % strength ([2]; 168 h, 0.05 % w/w, Day 7): 0%
- mortality at 0.5 % strength ([2]; 168 h, 0.5 % w/w, Day 7): 0%
- mortality at 1 % strength ([2]; 168 h, Day 7): 12.5%
- mortality ([2]; 168 h, Day 7): 2.5%
- mortality at 0.05 % strength ([2]; 0.05 % w/w, Hour 1): 0%
- mortality at 0.5 % strength ([2]; 0.5 % w/w, Hour 1): 0%
- mortality at 1 % strength ([2]; Hour 1): 7.5%
- mortality ([2]; Hour 1): 0%
- % Mortality ([3]; 0.05 % w/w): 0.0%
- % Mortality ([3]; 0.5 % w/w): 0.0%
- % Mortality ([3]; 5.0 % w/w): 0.0%
- mortality at 0.05 % strength ([3]; 24 h, 0.05 % w/w, Day 1): 0%
- mortality at 0.5 % strength ([3]; 24 h, 0.5 % w/w, Day 1): 0%
- mortality at 5 % strength ([3]; 24 h, 5.0 % w/w, Day 1): 0%
- mortality at 0.05 % strength ([3]; 48 h, 0.05 % w/w, Day 2): 0%
- mortality at 0.5 % strength ([3]; 48 h, 0.5 % w/w, Day 2): 0%
- mortality at 5 % strength ([3]; 48 h, 5.0 % w/w, Day 2): 0%
- mortality at 0.05 % strength ([3]; 120 h, 0.05 % w/w, Day 5): 2.6%
- mortality at 0.5 % strength ([3]; 120 h, 0.5 % w/w, Day 5): 0%
- mortality at 5 % strength ([3]; 120 h, 5.0 % w/w, Day 5): 0%
- mortality at 0.05 % strength ([3]; 144 h, 0.05 % w/w, Day 6): 2.6%
- mortality at 0.5 % strength ([3]; 144 h, 0.5 % w/w, Day 6): 0%
- mortality at 5 % strength ([3]; 144 h, 5.0 % w/w, Day 6): 0%
- mortality at 0.05 % strength ([3]; 168 h, 0.05 % w/w, Day 7): 2.6%
- mortality at 0.5 % strength ([3]; 168 h, 0.5 % w/w, Day 7): 0%
- mortality at 5 % strength ([3]; 168 h, 5.0 % w/w, Day 7): 0%
- mortality at 0.05 % strength ([3]; 0.05 % w/w, Hour 1): 0%
- mortality at 0.5 % strength ([3]; 0.5 % w/w, Hour 1): 0%
- mortality at 5 % strength ([3]; 5.0 % w/w, Hour 1): 0%
- % Mortality ([4]; 0.05 % w/w): 0.0%
- % Mortality ([4]; 0.5 % w/w): 0.0%
- % Mortality ([4]; 5.0 % w/w): 0.0%
- mortality at 0.05 % strength ([4]; 24 h, 0.05 % w/w, Day 1): 0%
- mortality at 0.5 % strength ([4]; 24 h, 0.5 % w/w, Day 1): 0%
- mortality at 5 % strength ([4]; 24 h, 5.0 % w/w, Day 1): 0%
- mortality at 0.05 % strength ([4]; 48 h, 0.05 % w/w, Day 2): 0%
- mortality at 0.5 % strength ([4]; 48 h, 0.5 % w/w, Day 2): 0%
- mortality at 5 % strength ([4]; 48 h, 5.0 % w/w, Day 2): 0%
- mortality at 0.05 % strength ([4]; 120 h, 0.05 % w/w, Day 5): 0%
- mortality at 0.5 % strength ([4]; 120 h, 0.5 % w/w, Day 5): 0%
- mortality at 5 % strength ([4]; 120 h, 5.0 % w/w, Day 5): 0%
- mortality at 0.05 % strength ([4]; 144 h, 0.05 % w/w, Day 6): 0%
- mortality at 0.5 % strength ([4]; 144 h, 0.5 % w/w, Day 6): 0%
- mortality at 5 % strength ([4]; 144 h, 5.0 % w/w, Day 6): 0%
- mortality at 0.05 % strength ([4]; 168 h, 0.05 % w/w, Day 7): 0%
- mortality at 0.5 % strength ([4]; 168 h, 0.5 % w/w, Day 7): 0%
- mortality at 5 % strength ([4]; 168 h, 5.0 % w/w, Day 7): 0%
- mortality at 0.05 % strength ([4]; 0.05 % w/w, Hour 1): 0%
- mortality at 0.5 % strength ([4]; 0.5 % w/w, Hour 1): 0%
- mortality at 5 % strength ([4]; 5.0 % w/w, Hour 1): 0%
